Measured values from US20110059526A1, “REPROGRAMMING A CELL BY INDUCING A PLURIPOTENT GENE THROUGH USE OF AN HDAC MODULATOR” (NUPOTENTIAL, INC., priority 2008, published 2011).
Where a name gives a salt, the structure may show the parent alone.

Tests used:
[1] = test system: Oct-4 gene expression, BJF cells; test: Small molecules, Oct-4 gene expression by qRT-PCR (Table III), BJF; type: cell-based, human
Method: (§1) Cell culture. Human dermal fibroblasts were purchased from Cell Applications (San Diego, Calif.), and were maintained at 37° C. in 95% humidity and 5% CO2 in Fibroblast growth medium (Cell Applications, San Diego, Calif.).
(§2) Quantitative RT-PCR. Expression of Oct-4 was determined by real-time RT-PCR. Briefly, total RNA was prepared from cultures using Trizol Reagent (Life Technologies, Gaithersburg, Md.) and RNeasy Mini kit (Qiagen; Valencia, Calif.) with DNase I digestion according to manufacturer's protocol. Total RNA (1 μg) from each sample was subjected to oligo(dT)-primed reverse transcription (Invitrogen; Carlsbad, Calif.). Real-time PCR reactions will be performed with PCR master mix on a 7300 real-time PCR system (Applied Biosystems; Foster City, Calif.). For each sample, 1 μl of diluted cDNA (1:10) will be added as template in PCR reactions. The expression level of Cot-4 was normalized to glyceraldehyde 3-phosphate-dehydrogenase (GAPD).
Table III provides the effects of small molecule inhibitors on Oct-4 gene expression in human somatic cells. mRNA levels were determined by real time qRT-PCR and normalized with GAPDH. The abbreviations are as follows: HDACi (histone deacetylase inhibitor DNMTi (DNA methyltransferase inhibitor); SIRTi (sirtuin, Class III HDAC inhibitor); LdeMi (lysine demethylase inhibitor); SIRT1a (sirtuin 1 activator); TSAi (trichostatin A inhibitor); HDMi/LSD1i (histone demethylase inhibitor/Lysine demethylase 1 inhibitor).

[2] = test system: Oct-4 gene expression, adult human dermal fibroblasts (HDFa); test: Small molecules, Oct-4 gene expression by qRT-PCR (Table III), HDFa; type: cell-based
Method: as §1, §2
The abbreviations are as follows: HDACi (histone deacetylase inhibitor DNMTi (DNA methyltransferase inhibitor); SIRTi (sirtuin, Class III HDAC inhibitor); LdeMi (lysine demethylase inhibitor); SIRT1a (sirtuin 1 activator); TSAi (trichostatin A inhibitor); HDMi/LSD1i (histone demethylase inhibitor/Lysine demethylase 1 inhibitor).

[3] = test system: Oct-4 gene expression, HLFa; test: Small molecules, Oct-4 gene expression by qRT-PCR (Table III), HLFa; type: cell-based, human; conditions: dose 500 uM, Rx Time 5
[4] = test system: Oct-4 protein, fetal human dermal fibroblasts (HDFf); test: Immunohistochemistry of Oct-4 protein in shRNA-infected cells; type: cell-based; conditions: versus uninfected control
Method: Cell culture. Fetal human dermal fibroblasts were purchased from Cell Applications (San Diego, Calif.), and were maintained at 37° C. in 95% humidity and 5% CO2 in Fibroblast growth medium (Cell Applications, San Diego, Calif.).
Lentiviral Infection. Fetal human dermal fibroblasts were infected with one of the following compositions: (1) shRNA lentivirus directed to DNMT1; (2) shRNA lentivirus directed toward HDAC7; (3) shRNA lentivirus directed toward DNMT1 and HDAC7; and (4) shRNA lentivirus directed toward HDAC7a and HDAC11. The shRNA construct was obtained from Dharmacon. The shRNA construct directed toward HDAC7a had the following sequence:
(§3) The human dermal fibroblasts were infected with the shRNA following the manufacturer's instructions. HDF were cultured with an without puromycin selection and hES culture conditions (mTeSR Medium, Stem Cell Technology, Vancouver, BC, Canada) on matrigel (BD Biosciences, San Jose Calif.).
Immunohistochemistry. For immunohistochemistry, target shRNA-infected and control cells were grown on chambered slides (LabTek, Napersville, Ill.). Cells were then be fixed with 4% paraformaldehyde, and incubated with a specific antibody directed against pluripotency marker Oct3/4 (Abeam, Cambridge, Mass.) following the manufacturer's protocol. Staining of Oct3/4 was visualized as a red color. […]

[5] = test system: Sox-2 protein, fetal human dermal fibroblasts (HDFf); test: Immunohistochemistry of Sox-2 protein in shRNA-infected cells; type: cell-based; conditions: versus uninfected control
[6] = test system: HDAC genes and SIRT genes mRNA, human dermal fibroblasts; test: HDAC7 shRNA lentiviral infection, RT-PCR of HDAC and SIRT genes (FIG. 7); type: cell-based
Excerpt: (§4) Human dermal fibroblasts (HDFa, HDFn, and HDFf) were infected with shRNA lentivirus to interfere with HDAC7. In a separate set of experiments, human dermal fibroblasts (HDFa, HDFn, and HDFf) were infected with shRNA lentivirus to interfere with HDAC11. RNA was isolated from HDFs (including puromycin selection) and applied to RT-PCR to analyze expression of target genes, e.g., Oct-4, Nanog, Sox2, various HDACs and various SIRT genes. The shRNA construct included puromycin (antibiotic) resistance as a way to select cells that have been successfully transfected with the shRNA. After transfection, puromycin was added to the culture and cells that were not resistant (therefore not transfected) died, thereby leaving only transfected cells remaining in the culture.
as §1
(§5) Lentiviral Infection. Human dermal fibroblasts were infected with a shRNA construct. The shRNA construct was obtained from Dharmacon. The shRNA construct directed toward directed toward HDAC7a had the following sequence:
The human dermal fibroblasts were infected with the shRNA following the manufacturer's instructions. […]
Quantitative RT-PCR. Expression of Oct-3/4 and Nanog was determined by real-time RT-PCR. […]

[7] = test system: HDAC7a and HDAC11 expression, human dermal fibroblasts (HDFa, HDFn, HDFf); test: HDAC7a shRNA effect on expression of HDAC7a and HDAC11, RT-PCR; type: cell-based
Method: as §1
Lentiviral Infection. Human dermal fibroblasts were infected with a shRNA construct. The shRNA construct was obtained from Dharmacon. The shRNA construct directed toward HDAC7a had the following sequence:
as §3
as §2, with “HDAC7a and HDAC11” for “Oct-4”, “The expression level of Cot-4 was normalized to glyceraldehyde 3-phosphate-dehydrogenase (GAPD).” left out

[8] = test system: Oct-4, Nanog, Sox-2 mRNA, human dermal fibroblasts (HDFa, HDFn, HDFf); test: HDAC7 or HDAC11 shRNA lentiviral infection, RT-PCR of Oct-4, Nanog, Sox-2 mRNA; type: cell-based
Excerpt: as §4, §1, §5
The human dermal fibroblasts were infected with the shRNA following the manufacturer's instructions. HDF were cultured with an without puromycin selection and hES culture conditions (mTeSR Medium, Stem Cell Technology, Vancouver, BC, Canada) on matrigel (BD Biosciences, San Jose Calif.). In these sets of experiments, cells were infected with a shRNA construct directed toward either HDAC7, or HDAC11.
as §2, with “Oct-3/4 and Nanog” for “Oct-4”, “DNase” for “DNase I”, “Oct-3/4 and Nanog” for “Cot-4”

Molecule: NC1CC1c1ccccc1 (centres unmarked) [2-PCPA]
- Oct4 FC ([1]; dose 1 mM, Rx Time 8): <2

Molecule: O=C(O)CCCCC1CCSS1 (stereo not drawn) [ALA, Alpha-lipoic acid]
- Oct4 FC ([2]; dose 50 uM, Rx Time 4): 3.5

Molecule: O=C(O)CCCC[C@@H]1SC[C@@H]2NC(=O)N[C@@H]21 [Biotin]
- Oct4 FC ([2]; dose 500 uM, Rx Time 4): <2

Molecule: Nc1ccccc1NC(=O)CCCCCCC(=O)Nc1ccccc1 [CAY 10433]
- Oct4 FC ([2]; dose 50 uM, Rx Time 4): <2

Molecule: O=C(O[C@@H]1Cc2c(O)cc(O)cc2O[C@@H]1c1cc(O)c(O)c(O)c1)c1cc(O)c(O)c(O)c1 [EGCG]
- Oct4 FC ([1]; dose 1 uM, Rx Time 4): <2

Molecule: NC(=O)C1CCCc2c1[nH]c1ccc(Cl)cc21 (centres unmarked) [EX-527]
- Oct4 FC ([2]; dose 50 uM, Rx Time 4): 2

Molecule: NNc1nncc2ccccc12 [Hydralazine HCL]
- Oct4 FC ([2]; dose 500 uM, Rx Time 2): <2

Molecule: O=C(c1ccc(Cl)cc1Cl)n1nnc2ccccc21 [ITSA]
- Oct4 FC ([2]; dose .05 mM, Rx Time 4): <2

Molecule: NC(=O)c1cccnc1 [Nicotinamide]
- Oct4 FC ([2]; dose .028 mM, Rx Time 4): 2.3

Molecule: CCN(CC)CCOC(=O)c1ccc(N)cc1 [Procaine HCL]
- Oct4 FC ([2]; dose 500 uM, Rx Time 8): <2

Molecule: O=C(NCCSSCCNC(=O)/C(Cc1ccc(O)c(Br)c1)=N/O)/C(Cc1ccc(O)c(Br)c1)=N/O [Psammaplin-A]
- Oct4 FC ([1]; dose 1.5 mM, Rx Time 7): 2.2

Molecule: O=C(O)C(Cc1c[nH]c2ccccc12)N1C(=O)c2ccccc2C1=O (centres unmarked) [RG108]
- Oct4 FC [3]: <2

Molecule: Cn1cc(C2=C(c3cn(CCCSC(=N)N)c4ccccc34)C(=O)NC2=O)c2ccccc21 [RO-31-8220]
- Oct4 FC ([1]; dose 2.5 mM, Rx Time 4): <2

Molecule: Oc1ccc(C=Cc2cc(O)cc(O)c2)cc1 [Resveratrol]
- Oct4 FC ([1]; dose .5 mM, Rx Time 4): <2

Molecule: COCCCn1c(N)c(C(=O)NC2CCCC2)c2nc3ccccc3nc21 [SIRT1 Activator 3]
- Oct4 FC ([2]; dose 500 uM, Rx Time 4): 2

Molecule: CC(NC(=O)c1ccccc1/N=C/c1c(O)ccc2ccccc12)c1ccccc1 (centres unmarked) [Sirtinol]
- Oct4 FC ([1]; dose .05 mM, Rx Time 7): <2

Molecule: O=C1CCc2c(ccc3ccccc23)O1 [Splitomycin]
- Oct4 FC ([2]; dose .5 mM, Rx Time 4): 2

Molecule: N[C@@H]1C[C@H]1c1ccccc1 [Tranylcypromine]
- Oct4 FC ([2]; dose 2.5 mM, Rx Time 4): 2.7

Molecule: O=c1ncccn1[C@@H]1O[C@H](CO)[C@@H](O)[C@H]1O [Zebularine]
- Oct4 FC ([1]; dose .05 mM, Rx Time 6): <2

Molecule: DNMT1 shRNA: shRNA construct directed toward DNMT1, SEQ ID NO. 4: GTCTACCAGATCTTCGATA (listed as Homo Sapiens)
- Oct-4 protein expression [4]: clearly increased
- Sox-2 protein expression [5]: only a modest amount

Molecule: Depudecin
- Oct4 FC ([2]; dose 50 uM, Rx Time 4): <2

Molecule: HDAC7 shRNA: shRNA lentiviral construct from Dharmacon directed toward HDAC7a, SEQ ID NO. 1: GCTTTCAGGATAGTCGTGA (shRNA lentiviral construct)
- Oct-4 protein expression [4]: minimal detection
- level of HDAC7 mRNA reduced ([6]; around three days after lentiviral infection): about 50 % of basal level
- expression of HDAC 9, HDAC5 and HDAC11 mRNA ([6]; three days after HDAC7 shRNA infection): inducted
- Sox-2 protein expression [5]: minimal protein expression
- expression of HDAC7a [7]: decreased
- expression of HDAC11 ([7]; presence and absence of puromycin): increased
- level of mRNA for the gene Oct-4 ([8]; HDFa and HDFn, presence and absence of puromycin, compared to Nanog): more modest increase
- expression of Nanog increased over time ([8]; HDFa and HDFn, with and without puromycin selection): at least six-fold
- level of mRNA for the gene Nanog ([8]; HDFa, HDFn and HDFf, presence and absence of puromycin): increased
- level of mRNA for the gene Nanog ([8]; HDFf, compared with HDFa and HDFn): not as robustly
- level of mRNA for the Sox-2 gene ([8]; fetal human dermal fibroblasts (HDFf)): No induction

Molecule: Na Phenylbutyrate
- Oct4 FC ([2]; dose 2.5 mM, Rx Time 4): 2.5

Molecule: Valproxam
- Oct4 FC ([2]; dose .5 mM, Rx Time 4): <2
